In this assay the target is T1, human LPAR1 (Homo sapiens, UniProt Q92633).
T1 construct: host or cells: TangoEDG2-bla U2OS cells
In words: Arrestin assay (Arrestin Reporter EDG2-bla U2OS), inhibition of LPA-stimulated signal. The settings on record: TangoEDG2-bla U2OS cells expressing human LPAR1; 0.25 μM LPA; read-out: Arrestin Reporter EDG2-bla U2OS Human Merged IC50. The class given is cell-based. The protocol: The inhibitory activity of compounds 15, 62, 77, 84 and 169 against LPAR1 was measured using an Arrestin assay in U2OS cells expressing human LPAR1.
FreeStyle media was warmed in a 37° C. water bath. Cryo-preserved vial(s) of TangoEDG2-bla U2OS cells were rapidly thawed in a 37° C. water bath. The thawed cells were added to FreeStyle media and cells were pelleted at 300×g for 5 minutes. The supernatant was aspirated, and cells were resuspended in FreeStyle media. Cell density was adjusted to 0.25×10^6 cells/mL. Cells (1×10^4 in 40 μL) were added to each well of Greiner 384 well black cell plate(s). Cell plate(s) were placed in a humidified 37° C./5% CO2 incubator for 18-20 hours. Dilutions of test compound were prepared at 6× final concentration; 12-point, 3-fold dilutions using HH Buffer (1×HBSS plus 20 mM HEPES). The 6× test compound was then added to the cell plate(s) at 10 μL/well. The final concentration ranged from 10 μM to 0.00006 μM. Cell plate(s) were incubated in a humidified 37° C./5% CO2 incubator for 1 hour. During the incubation, 6×LPA was prepared at 1.5 μM in 0.1% BSA HH Buffer. After the 1-hour incubation of test compound with cells, the LPA was added to the cell plate(s) at 10 μL/well (final LPA concentration of 0.25 μM). Cell plate(s) were returned to a humidified 37° C./5% CO2 incubator for 3 hours. The Development solution was made up per the LiveBLAzerFRET B/G kit protocol. The Development solution was added to the cell plate(s) at 10 μL/well. Cell plates were incubated in the dark at room temperature for 2 hours. Plate(s) were read on an Envision Plate Reader (Perkin Elmer) to read fluorescence; excitation at 409 nm with emission at 460 nm and 530 nm. Raw Data for analysis is the ratio of emission at 460 nm divided by emission 530 nm. The formula used to determine % Inhibition is as follows (1−(Raw Data−Low Average)/(High Average−Low Average))*100. Percent Inhibition was plotted to determine IC50 value with GraphPad Prism 9.5.0 software using Variable slope 4-parameter curve fit analysis.
Additional compounds of the present disclosure were synthesized in a manner similar to the compounds described above and understood by a person of ordinary skill in the art. The inhibitory activity of the compounds of the present disclosure against LPAR1 was measured using the above-referenced Arrestin Assay protocol.

T1 sequence (Q92633 whole entry): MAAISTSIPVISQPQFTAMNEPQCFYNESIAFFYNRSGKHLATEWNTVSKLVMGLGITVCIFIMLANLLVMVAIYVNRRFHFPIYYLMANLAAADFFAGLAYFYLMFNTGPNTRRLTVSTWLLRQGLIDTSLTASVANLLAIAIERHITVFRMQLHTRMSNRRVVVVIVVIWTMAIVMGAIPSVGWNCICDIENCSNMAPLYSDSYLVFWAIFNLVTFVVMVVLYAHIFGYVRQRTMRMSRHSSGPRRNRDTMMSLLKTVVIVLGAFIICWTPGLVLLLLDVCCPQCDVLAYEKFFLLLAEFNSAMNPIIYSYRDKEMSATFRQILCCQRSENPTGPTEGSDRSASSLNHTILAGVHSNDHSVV

In general, IC50 refers to the concentration needed to halve the response being measured. In the case of `CC(C)c1ccnn1C1(C(=O)Nc2ccc(Cl)cc2OC(F)F)CCN(CC2(C(=O)O)CCOCC2)CC1` [Compound 3, 4-[[4-[[4-chloro-2-(difluoromethoxy)phenyl]carbamoyl]-4-(5-isopropylpyrazol-1-yl)-1-piperidyl]methyl]tetrahydropyran-4-carboxylic acid], the IC50 was determined as 14.7 nM. Consider `CC(C)c1ccnn1C1(C(=O)Nc2ccc(Cl)cc2OC(F)F)CCN(CC2(C(=O)O)CCN(C(=O)OC(C)(C)C)CC2)CC1` [Compound 4, 1-tert-butoxycarbonyl-4-[[4-[[4-chloro-2-(difluoromethoxy)phenyl]carbamoyl]-4-(5-isopropylpyrazol-1-yl)-1-piperidyl]methyl] piperidine-4-carboxylic acid], for which the IC50 was 22.8 nM. To `CC(=O)N1CCC(CN2CCC(C(=O)Nc3ccc(Cl)cc3OC(F)F)(n3nccc3C(C)C)CC2)(C(=O)O)CC1` [Compound 5, 1-acetyl-4-[[4-[[4-chloro-2-(difluoromethoxy)phenyl]carbamoyl]-4-(5-isopropylpyrazol-1-yl)-1-piperidyl]methyl]piperidine-4-carboxylic acid] belongs 87.3 nM; to `CCOC(=O)N1CCC(CN2CCC(C(=O)Nc3ccc(Cl)cc3OC(F)F)(n3nccc3C(C)C)CC2)(C(=O)O)CC1` [Compound 6, 4-[[4-[[4-chloro-2-(difluoromethoxy)phenyl]carbamoyl]-4-(5-isopropylpyrazol-1-yl)-1-piperidyl]methyl]-1-ethoxycarbonyl-piperidine-4-carboxylic acid], 24.7 nM. For the compound `C=CC(=O)N1CCC(CN2CCC(C(=O)Nc3ccc(Cl)cc3OC(F)F)(n3nccc3C(C)C)CC2)(C(=O)O)CC1` [Compound 7, 4-[[4-[[4-chloro-2-(difluoromethoxy)phenyl]carbamoyl]-4-(5-isopropylpyrazol-1-yl)-1-piperidyl]methyl]-1-prop-2-enoyl-piperidine-4-carboxylic acid], the IC50 stood at 50.8 nM. With `CC(C)c1ccnn1C1(C(=O)Nc2ccc(Cl)cc2OC(F)F)CCN(CC2(C(=O)O)CCN(C(=O)OCc3ccccc3)CC2)CC1` [Compound 8, 1-benzyloxycarbonyl-4-[[4-[[4-chloro-2-(difluoromethoxy)phenyl]carbamoyl]-4-(5-isopropylpyrazol-1-yl)-1-piperidyl]methyl]piperidine-4-carboxylic acid], the IC50 worked out at 3.31 nM. With `COC(=O)CC(=O)N1CCC(CN2CCC(C(=O)Nc3ccc(Cl)cc3OC(F)F)(n3nccc3C(C)C)CC2)(C(=O)O)CC1` [Compound 9, 4-[[4-[[4-chloro-2-(difluoromethoxy)phenyl]carbamoyl]-4-(5-isopropylpyrazol-1-yl)-1-piperidyl]methyl]-1-(3-methoxy-3-oxo-propanoyl)piperidine-4-carboxylic acid], the IC50 is 128 nM. For the compound `CC(C)c1ccnn1C1(C(=O)Nc2ccc(Cl)cc2OC(F)F)CCN(CC2(C(=O)O)CCN(C(=O)Oc3ccc(F)cc3)CC2)CC1` [Compound 10, 4-[[4-[[4-chloro-2-(difluoromethoxy)phenyl]carbamoyl]-4-(5-isopropylpyrazol-1-yl)-1-piperidyl]methyl]-1-(4-fluorophenoxy)carbonyl-piperidine-4-carboxylic acid], the IC50 stood at 7.53 nM. In the case of `CC(C)c1ccnn1C1(C(=O)Nc2ccc(Cl)cc2OC(F)F)CCN(CC(C(=O)O)C2CCOCC2)CC1` (centres unmarked) [Compound 11, 3-[4-[[4-chloro-2-(difluoromethoxy)phenyl]carbamoyl]-4-(5-isopropylpyrazol-1-yl)-1-piperidyl]-2-tetrahydropyran-4-yl-propanoic acid], the IC50 worked out at 52.6 nM.

Consider `CC(C)c1ccnn1C1(C(=O)Nc2ccc(Cl)cc2OC(F)F)CCN(CC2(C(=O)O)CCCC2)CC1` [Compound 12, 1-[[4-[[4-chloro-2-(difluoromethoxy)phenyl]carbamoyl]-4-(5-isopropylpyrazol-1-yl)-1-piperidyl]methyl] cyclopentanecarboxylic acid], for which the IC50 worked out at 11.4 nM. As to `CC(C)c1ccnn1C1(C(=O)Nc2ccc(Cl)cc2OC(F)F)CCN(CC2(C(=O)O)CCCO2)CC1` (centres unmarked) [Compound 13, 2-[[4-[[4-chloro-2-(difluoromethoxy)phenyl]carbamoyl]-4-(5-isopropylpyrazol-1-yl)-1-piperidyl]methyl] tetrahydrofuran-2-carboxylic acid], the IC50 is 11.2 nM. Take `CC(C)c1ccnn1C1(C(=O)Nc2ccc(Cl)cc2OC(F)F)CCN(CC2(C(=O)O)CCOC2)CC1` (centres unmarked) [Compound 16, 3-[[4-[[4-chloro-2-(difluoromethoxy)phenyl]carbamoyl]-4-(5-isopropylpyrazol-1-yl)-1-piperidyl]methyl] tetrahydrofuran-3-carboxylic acid]: the IC50 came out at 29.8 nM. Take `CC(C)c1ccnn1C1(C(=O)Nc2ccc(Cl)cc2OC(F)F)CCN(CC(C(=O)O)c2cccnc2)CC1` (centres unmarked) [Compound 17, 3-[4-[[4-chloro-2-(difluoromethoxy)phenyl]carbamoyl]-4-(5-isopropylpyrazol-1-yl)-1-piperidyl]-2-(3-pyridyl)propanoic acid]: the IC50 was determined as 14.5 nM. As for `CC(C)c1ccnn1C1(C(=O)Nc2ccc(Cl)cc2OC(F)F)CCN(CC2(C(=O)O)CCN(c3cnccn3)CC2)CC1` [Compound 18, 4-[[4-[[4-chloro-2-(difluoromethoxy)phenyl]carbamoyl]-4-(5-isopropylpyrazol-1-yl)-1-piperidyl]methyl]-1-pyrazin-2-yl-piperidine-4-carboxylic acid], the half-inhibitory concentration (IC50) was determined as 11 nM. Take `COc1ccc(C(CN2CCC(C(=O)Nc3ccc(Cl)cc3OC(F)F)(n3nccc3C(C)C)CC2)C(=O)O)cc1` (centres unmarked) [Compound 19, 3-[4-[[4-chloro-2-(difluoromethoxy)phenyl]carbamoyl]-4-(5-isopropylpyrazol-1-yl)-1-piperidyl]-2-(4-methoxyphenyl) propanoic acid]: the IC50 came out at 9.56 nM. Turning to `CC(C)c1ccnn1C1(C(=O)Nc2ccc(Cl)cc2OC(F)F)CCN(C[C@@]2(C(=O)O)CCCO2)CC1` [Compound 20, (2R)-2-[[4-[[4-chloro-2-(difluoromethoxy)phenyl]carbamoyl]-4-(5-isopropylpyrazol-1-yl)-1-piperidyl]methyl] tetrahydrofuran-2-carboxylic acid], the IC50 turned out to be 28.8 nM. As to `CC(C)c1ccnn1C1(C(=O)Nc2ccc(Cl)cc2OC(F)F)CCN(C[C@]2(C(=O)O)CCCO2)CC1` [Compound 21, (2S)-2-[[4-[[4-chloro-2-(difluoromethoxy)phenyl]carbamoyl]-4-(5-isopropylpyrazol-1-yl)-1-piperidyl]methyl] tetrabydrofuran-2-carboxylic acid], the IC50 was 14.6 nM. Take `COc1cccc(C(CN2CCC(C(=O)Nc3ccc(Cl)cc3OC(F)F)(n3nccc3C(C)C)CC2)C(=O)O)c1` (centres unmarked) [Compound 22, 3-[4-[[4-chloro-2-(difluoromethoxy)phenyl]carbamoyl]-4-(5-isopropylpyrazol-1-yl)-1-piperidyl]-2-(3-methoxyphenyl)propanoic acid]: the half-inhibitory concentration (IC50) is 10.1 nM. Turning to `CC(C)c1ccnn1C1(C(=O)Nc2ccc(Cl)cc2OC(F)F)CCN(C[C@@]2(C(=O)O)CCOC2)CC1` [Compound 24, (3S)-3-[[4-[[4-chloro-2-(difluoromethoxy)phenyl]carbamoyl]-4-(5-isopropylpyrazol-1-yl)-1-piperidyl]methyl] tetrabydrofuran-3-carboxylic acid], the half-maximal inhibitory concentration (IC50) was 24.7 nM.

With `CC(C)c1ccnn1C1(C(=O)Nc2ccc(Cl)cc2OC(F)F)CCN(C[C@H](C(=O)O)c2cccnc2)CC1` [Compound 25, (2R)-3-[4-[[4-chloro-2-(difluoromethoxy)phenyl]carbamoyl]-4-(5-isopropylpyrazol-1-yl)-1-piperidyl]-2-(3-pyridyl)propanoic acid], the IC50 worked out at 28 nM.

For `CC(C)c1ccnn1C1(C(=O)Nc2ccc(Cl)cc2OC(F)F)CCN(C[C@@H](C(=O)O)c2cccnc2)CC1` [Compound 26, (2S)-3-[4-[[4-chloro-2-(difluoromethoxy)phenyl]carbamoyl]-4-(5-isopropylpyrazol-1-yl)-1-piperidyl]-2-(3-pyridyl)propanoic acid], the half-maximal inhibitory concentration (IC50) stood at 24.5 nM.

Turning to `CC(C)c1ccnn1C1(C(=O)Nc2ccc(Cl)cc2OC(F)F)CCN(CC2(C(=O)O)CCC(=O)CC2)CC1` [Compound 27, 1-[[4-[[4-chloro-2-(difluoromethoxy)phenyl]carbamoyl]-4-(5-isopropylpyrazol-1-yl)-1-piperidyl]methyl]-4-oxo-cyclohexanecarboxylic acid], the IC50 was determined as 14.2 nM.

Turning to `COc1ccc([C@H](CN2CCC(C(=O)Nc3ccc(Cl)cc3OC(F)F)(n3nccc3C(C)C)CC2)C(=O)O)cc1` [Compound 28], the IC50 was found to be 4.82 nM.

The values above are taken from patent publication US20260102383A1, “LPAR1 Inhibitors” (AbbVie Inc., priority 2024, published 2026).
